Results: patent US9924716B2, “Molecules having pesticidal utility, and intermediates, compositions, and processes, related thereto” (Dow AgroSciences LLC, priority 2016, dated 2018)

How the values were obtained:
Format in all cases: in vivo
[1] = system: Beet Armyworm (Spodoptera exigua, LAPHEG) second instar larvae; assay: Bioassay on Beet Armyworm (BAW), 128-well diet tray assay; settings: Beet Armyworm, Table ABC Biological Results, read-out: BAW rating
Method in brief: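 Second-instar larvae, one to five per well, on artificial diet surface-treated with 50 μg/cm^2 compound in acetone-water, dried; eight wells per compound. Held 25 °C, 14:10 light-dark, five to seven days; percent mortality averaged over wells.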

[2] = system: Cabbage Looper (Trichoplusia ni, TRIPNI) second instar larvae; assay: Bioassay on Cabbage Looper (CL), 128-well diet tray assay; settings: Cabbage Looper, Table ABC Biological Results, read-out: CL rating
Method in brief: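 Second instar larvae (1–5 per well) on artificial diet surface-treated with 50 μg/cm² compound in 90:10 acetone-water, eight wells per compound. Held 5–7 days at 25 °C, 14:10 light-dark; percent mortality averaged across wells.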

[3] = system: Green Peach Aphid (Myzus persicae, MYZUPE); assay: Bioassay on Green Peach Aphid (GPA), foliar spray on cabbage seedlings; settings: Table ABC Biological Results
Procedure: Certain molecules disclosed in this document were tested against GPA using procedures described in the following example. In the reporting of the results, the “GPA & YFM Rating Table” was used (See Table Section). Cabbage seedlings grown in 3-inch pots, with 2-3 small (3-5 cm) true leaves, were used as test substrate. The seedlings were infested with 20-50 GPA (wingless adult and nymph stages) one day prior to chemical application. Four pots with individual seedlings were used for each treatment. Test molecules (2 mg) were dissolved in 2 mL of acetone/methanol (1:1) solvent, forming stock solutions of 1000 ppm test molecule. The stock solutions were diluted 5× with 0.025% Tween 20 in water to obtain the solution at 200 ppm test molecule. A hand-held aspirator-type sprayer was used for spraying a solution to both sides of […] leaves until runoff. Reference plants (solvent check) were sprayed with the diluent only containing 20% by volume of acetone/methanol (1:1) solvent. Treated plants were held in a holding room for three days at approximately 25° C. and ambient relative humidity (RH) prior to grading. […] Percent Control was measured by using Abbott's correction formula (W. S. Abbott, “A Method of Computing the Effectiveness of an Insecticide” J. Econ. Entomol. 18 (1925), pp. 265-267) as follows. […]

[4] = system: Yellow Fever Mosquito (Aedes aegypti, AEDSAE) larvae; assay: Bioassay on Yellow Fever Mosquito (YFM), 96-well plate larval assay; settings: Table ABC Biological Results
Procedure: Certain molecules disclosed in this document were tested against YFM using procedures described in the following paragraph. In the reporting of the results, the “GPA & YFM Rating Table” was used (See Table Section).
Master plates containing 400 μg of a molecule dissolved in 100 μL of dimethyl sulfoxide (DMSO) (equivalent to a 4000 ppm solution) are used. A master plate of assembled molecules contains 15 μL per well. To this plate, 135 μL of a 90:10 water:acetone mixture is added to each well. A robot (Biomek® NXP Laboratory Automation Workstation) is programmed to dispense 15 μL aspirations from the master plate into an empty 96-well shallow plate (“daughter” plate). There are 6 reps (“daughter” plates) created per master. The created daughter plates are then immediately infested with YFM larvae.
The day before plates are to be treated, mosquito eggs are placed in Millipore water containing liver powder to begin hatching (4 g. into 400 mL). After the daughter plates are created using the robot, they are infested with 220 μL of the liver powder/larval mosquito mixture (about 1 day-old larvae). After plates are infested with mosquito larvae, a non-evaporative lid is used to cover the plate to reduce drying. Plates are held at room temperature for 3 days prior to grading. After 3 days, each well is observed and scored based on mortality. The results are indicated in the table entitled “Table ABC: Biological Results” (See Table Section).

Row | Structure (SMILES) | pest or weed control at 50 µg/cm2 [1] | pest or weed control at 50 µg/cm2 [2] | GPA rating [3] | YFM rating [4]
1 | C[C@H](NC(=O)CCC(F)(F)F)NC(=O)c1ccc(/C(F)=C/C(c2cc(Cl)c(F)c(Cl)c2)C(F)(F)F)cc1C(F)(F)F (stereo partly drawn) [F17, 4-((Z)-3-(3,5-Dichloro-4-fluorophenyl)-1,4,4,4-tetrafluorobut-1-en-1-yl)-N—((R)-1-(4,4,4-trifluorobutanamido)ethyl)-2-(trifluoromethyl)benzamide] | 50 to 100% | 50 to 100% | B (More than 0-Less than 80) | A (80-100)
2 | C[C@H](NC(=O)CC(F)(F)F)NC(=O)c1ccc(/C(F)=C/C(c2cc(Cl)c(Br)c(Cl)c2)C(F)(F)F)cc1C(F)(F)F (stereo partly drawn) [F31, 4-((Z)-3-(4-Bromo-3,5-dichlorophenyl)-1,4,4,4-tetrafluorobut-1-en-1-yl)-2-(trifluoromethyl)-N—((R)-1-(3,3,3-trifluoropropanamido)ethyl)benzamide] | 50 to 100% | 50 to 100% | B (More than 0-Less than 80) | A (80-100)
3 | C[C@H](NC(=O)CC(F)(F)F)NC(=O)c1ccc(/C(F)=C/C(c2ccc(Cl)c(F)c2)C(F)(F)F)cc1C(F)(F)F (stereo partly drawn) [PF2, 4-((Z)-3-(4-Chloro-3-fluorophenyl)-1,4,4,4-tetrafluorobut-1-en-1-yl)-2-(trifluoromethyl)-N—((R)-1-(3,3,3-trifluoropropanamido)ethyl)benzamide] | 50 to 100% | 50 to 100% |  | A (80-100)
4 | C[C@H](NC(=O)CCC(F)(F)F)NC(=O)c1ccc(/C(F)=C/C(c2ccc(F)c(Cl)c2)C(F)(F)F)cc1C(F)(F)F (stereo partly drawn) [PF3, 4-((Z)-3-(3-Chloro-4-fluorophenyl)-1,4,4,4-tetrafluorobut-1-en-1-yl)-N—((R)-1-(4,4,4-trifluorobutanamido)ethyl)-2-(trifluoromethyl)benzamide] | 50 to 100% | 50 to 100% |  | B (More than 0-Less than 80)
5 | Cc1cc(C(/C=C(\F)c2ccc(C(=O)N[C@H](C)NC(=O)CC(F)(F)F)c(C(F)(F)F)c2)C(F)(F)F)cc(Cl)c1Cl (stereo partly drawn) [PF4, 4-((Z)-3-(3,4-Dichloro-5-methylphenyl)-1,4,4,4-tetrafluorobut-1-en-1-yl)-2-(trifluoromethyl)-N—((R)-1-(3,3,3-trifluoropropanamido)ethyl)benzamide] | 50 to 100% | 50 to 100% |  | B (More than 0-Less than 80)
